Data set [1] has as its system HIV virus (HIV-1 IIIB strain). Description: Anti-HIV activity, cytopathic effect in CEM-SS cells by XTT dyeing, in the presence of 50% human blood serum. The data set is classed as cell-based. The following applies: Human immunodeficiency virus 1, IIIB, in the presence of 50% human blood serums, read-out: IC50 value in an anti-virus test. The procedure: The anti-HIV activity of the compounds synthesized Examples 1-15 and Reference Examples 1-4 was measured according to the method reported by O. S. Weislow et al. (J. Natl. Cancer Inst. 81, 577-586, 1989) using CEM-SS cells as host cells and HIV virus (HIV-1 IIIB strain) (see T. Mimoto et al., J. Med. Chem., 42, 1789-1802, 1999, etc.).
Specifically, the compounds synthesized Examples 1-15 and Reference Examples 1-5 in various concentrations were added to a culture medium on 96-well microtiter plates. Human blood serum was added to a final concentration of 50%, then HIV infected CEM-SS cells was added, followed by incubation in a CO2 atmosphere at 37°C for 6 days. The cytopathic effect induced by HIV-1 IIIB was measured by tetrazolium dye XTT dyeing method to evaluate the 50% inhibitory concentration (IC50).
For orientation: Damage to the host cells serves as the signal in cytopathic effect assays.

The next data set can be described thus: in vitro. It is filed as in vitro ADME. To be noted: human, plasma. The method, then: Freezed human plasma (HFFPP100) was used after thawing. Powder of human alpha 1-acid glycoprotein (supplied by SIGMA Co., hereinafter abbreviated to AAG) was dissolved in a phosphate buffer solution (PBS, pH 7.0) to a concentration of 1 mg/ml. Drug solutions were prepared by dissolving the compounds synthesized in Example 1 and Reference Example 1 in dimethylsulfoxide in various concentrations.
The drug solutions (10 µl, each) with different concentrations were added to 990 µl the plasma or AAG solutions prepared above, stirred well and incubated for 18 hours at 37°C to equilibrate binding proteins. All amount of the solution was transferred to Micropartition Devices (Centrifree® , Millipore Co.) and filtered by centrifugation at 1500 x g for 20 minutes (using TOMY CX-210 high-speed cooling centrifugal machine). 200 µl of the filtrate was directly subjected to HPLC (Type: HITACHI D-7000, column: COSMOSIL (4.6* 250 mm, manufactured by Nacalai Tesque Co., Ltd.). The HPLC analysis was carried out by using a 59:41 (v/v) water-acetonitrile mixture containing 0.1% trifluoroacetic acid (TFA) as a mobile phase and measuring absorbance at 210 nm. The quantitative determination of unbound drug concentration was carried out based on the absolute calibration curve method using a calibration line obtained from the analysis of a standard sample which contains the drug at a known concentration. […]

By IC50 is commonly meant the concentration that inhibits the measured activity by half. For orientation: fraction unbound means the share of the substance not bound to proteins or other matrix. A high value points to weak binding. For the molecule `COc1ccc(C[C@H](NC(=O)c2cccc(O)c2C)[C@H](O)C(=O)N2CSC(C)(C)[C@H]2C(=O)NCc2ccccc2C)cc1` [Example 1, (R)-N-(2-methylbenzyl)-3-[(2S,3S)-2-hydroxy-3-(3-hydroxy-2-methylbenzoyl)amino-4-(4-methoxyphenyl)butanoyl]-5,5-dimethyl-1,3-thiazolidine-4-carboxamide], in data set [1], the concentration for half-maximal inhibition (IC50) amounted to 6 ng/mL. This molecule also showed a fraction unbound at 18 h, 1 µM in “in vitro” of 0.029.

In “in vitro”, `Cc1ccccc1CNC(=O)[C@H]1N(C(=O)[C@@H](O)[C@H](Cc2ccccc2)NC(=O)c2cccc(O)c2C)CSC1(C)C` [Reference Example 1, reference compound] displayed a fraction unbound at 18 h, 1 µM of 0.013.

(Values after patent EP1157997A1, “NOVEL DIPEPTIDE COMPOUND AND MEDICINAL USE THEREOF” (JAPAN ENERGY CORPORATION, priority 1999, dated 2001).)
